Reference: PMC3993905 (2014)

Test system: MMP-2
Assay: active MMP-2
Settings: human, room temperature, up to 6 h

Row | cleaved bond | Substance
1 | G-I, 6 h | Ac-KKYGPQGIAGQYKK-NH2
2 | S-L, 6 h | Ac-KKYIPVSLRSGYKK-NH2
